Test results published in US9931379B2, “Oxyntomodulin analogs and methods of making and using same” (The Research Foundation for The State University of New York, priority 2015, dated 2018).
Each block holds one compound with its values, some of them ahead of it. Starred links: 1 amine or outer side, 2 acyl side, 3 side chain; linkers in the order of their positions; H or OH if unused. Positions of bridges follow the written chain, without caps; N, C: chain ends. Non-standard residues stand in square brackets, D forms with d. Residues, ends and D or L forms follow the SMILES beside them. Biphenyl(4,4'-CH2)2 = c1cc(-c2ccc(C[*:2])cc2)ccc1C[*:1]; X3 = C(=Cc1ccc(C=CC[*:2])cc1)C[*:1]

Key:
[1] = molecular target: T1, GLP-1R (Homo sapiens, UniProt P43220); experiment: CRE-driven luciferase reporter assay, HEK293 cells overexpressing GLP-1R; assay type: cell-based; settings: for GLP-1R activation, result in words: comparison
T1 construct: expressed in transfected cells
T1 sequence (P43220 24-463): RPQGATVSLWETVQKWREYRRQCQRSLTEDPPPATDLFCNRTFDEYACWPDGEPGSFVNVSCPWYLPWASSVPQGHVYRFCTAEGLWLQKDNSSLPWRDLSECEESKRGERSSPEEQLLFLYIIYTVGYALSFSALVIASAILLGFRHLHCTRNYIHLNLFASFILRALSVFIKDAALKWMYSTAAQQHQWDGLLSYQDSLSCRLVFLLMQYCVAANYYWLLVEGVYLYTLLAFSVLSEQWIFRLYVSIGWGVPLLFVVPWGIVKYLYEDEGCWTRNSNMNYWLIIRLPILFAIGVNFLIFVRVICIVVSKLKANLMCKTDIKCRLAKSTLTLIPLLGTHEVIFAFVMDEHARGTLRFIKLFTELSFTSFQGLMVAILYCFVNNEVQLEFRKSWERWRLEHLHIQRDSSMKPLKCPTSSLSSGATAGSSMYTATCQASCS
Description: (§1) The surviving cells (referred to as CRE-HEK293) were expanded and then transfected with a G418 selective mammalian expression plasmid encoding human GCGR or GLP-1R, followed by geneticin selection (Life technologies, Carlsbad, Calif.). Single-colony stable cell lines expressing both CRE-luciferase and GCGR/GLP-1R were then established for in vitro activity assays.
(§2) HEK293-GCGR-CRE and HEK293-GLP-1R-CRE cells were seeded in a white 384-well plate at a density of 5,000 cells per well and cultured for 24 hours in DMEM with 10% FBS at 37° C. with 5% CO2. Cells were treated with different peptides in a dose dependent manner. After 24 hours, 10 μL of Bright-Glo reagent (Promega, Madison, Wis.) was added to each well and luminescence was determined using an Envision multilabel plate reader (PerkinElmer, Waltham, Mass.). The EC50 of each peptide was calculated using GraphPad Prism 6 software (GraphPad, San Diego, Calif.).

[2] = molecular target: T2, GCGR (Homo sapiens, UniProt P47871); experiment: CRE-driven luciferase reporter assay, HEK293 cells overexpressing GCGR; assay type: cell-based; settings: for GCGR activation, result in words: comparison
T2 construct: expressed in transfected cells
T2 sequence (P47871 26-477): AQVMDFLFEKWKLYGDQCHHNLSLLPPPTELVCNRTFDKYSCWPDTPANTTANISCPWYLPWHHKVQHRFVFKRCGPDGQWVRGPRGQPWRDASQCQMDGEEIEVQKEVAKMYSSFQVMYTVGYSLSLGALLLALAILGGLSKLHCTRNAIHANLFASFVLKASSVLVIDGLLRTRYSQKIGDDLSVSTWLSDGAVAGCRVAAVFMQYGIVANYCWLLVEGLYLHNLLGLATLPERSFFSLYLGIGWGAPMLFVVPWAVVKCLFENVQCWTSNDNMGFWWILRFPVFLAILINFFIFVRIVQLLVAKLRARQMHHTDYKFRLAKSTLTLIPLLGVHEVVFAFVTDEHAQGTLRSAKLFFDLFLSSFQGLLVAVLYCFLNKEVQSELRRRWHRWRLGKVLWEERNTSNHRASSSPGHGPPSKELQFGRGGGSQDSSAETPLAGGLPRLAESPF
Description: as §1, §2

[3] = tested on: CD1 mice; experiment: Oral glucose tolerance test (OGTT); assay type: in vivo; settings: 10 μg/mice s.c. 4 hours before oral glucose challenge
[4] = compared to its linear counterpart
[5] = compared to its D,L counterpart, peptide 1

Compound: CC[C@H](C)[C@H](NC(=O)[C@H](CC(N)=O)NC(=O)[C@H](CC(N)=O)NC(=O)[C@H](CCCNC(=N)N)NC(=O)[C@H](CC(N)=O)NC(=O)[C@H](CCCNC(=N)N)NC(=O)[C@H](CCCCN)NC(=O)[C@@H](NC(=O)[C@H](CC(N)=O)NC(=O)[C@H](CCSC)NC(=O)[C@H](CC(C)C)NC(=O)[C@H](Cc1c[nH]c2ccccc12)NC(=O)[C@@H]1CSCc2ccc(cc2)-c2ccc(cc2)CSC[C@@H](NC(=O)[C@H](CO)NC(=O)[C@H](CC(=O)O)NC(=O)[C@H](CC(C)C)NC(=O)[C@H](Cc2ccc(O)cc2)NC(=O)[C@H](CCCCN)NC(=O)[C@H](CO)NC(=O)[C@H](Cc2ccc(O)cc2)NC(=O)[C@H](CC(=O)O)NC(=O)[C@H](CO)NC(=O)[C@@H](NC(=O)[C@H](Cc2ccccc2)NC(=O)[C@@H](NC(=O)CNC(=O)[C@H](CCC(N)=O)NC(=O)[C@@H](CO)NC(=O)[C@@H](N)Cc2c[nH]cn2)[C@@H](C)O)[C@@H](C)O)C(=O)N[C@@H](CCCNC(=N)N)C(=O)N[C@@H](C)C(=O)N[C@@H](CCC(N)=O)C(=O)N[C@@H](CC(=O)O)C(=O)N[C@@H](Cc2ccccc2)C(=O)N[C@@H](C(C)C)C(=O)N1)[C@@H](C)O)C(=O)N[C@@H](C)C(N)=O [peptide 3] (H-H[dS]QGTFTSDYSKYLDS[dC]RAQDFVCWLMNTKRNRNNIA-NH2; linker 17-24 via Biphenyl(4,4'-CH2)2)
increase in activity toward GLP-1R on crosslinking [1, 4]: 2 fold | increase in activity toward GCGR on crosslinking [2, 4]: 16 fold

Compound: CC[C@H](C)[C@H](NC(=O)[C@H](CC(N)=O)NC(=O)[C@H](CC(N)=O)NC(=O)[C@H](CCCNC(=N)N)NC(=O)[C@H](CC(N)=O)NC(=O)[C@H](CCCNC(=N)N)NC(=O)[C@H](CCCCN)NC(=O)[C@@H](NC(=O)[C@H](CC(N)=O)NC(=O)[C@H](CCSC)NC(=O)[C@H](CC(C)C)NC(=O)[C@H](Cc1c[nH]c2ccccc12)NC(=O)[C@H](CS)NC(=O)[C@@H](NC(=O)[C@H](Cc1ccccc1)NC(=O)[C@H](CC(=O)O)NC(=O)[C@H](CCC(N)=O)NC(=O)[C@H](C)NC(=O)[C@H](CCCNC(=N)N)NC(=O)[C@@H](CS)NC(=O)[C@H](CO)NC(=O)[C@H](CC(=O)O)NC(=O)[C@H](CC(C)C)NC(=O)[C@H](Cc1ccc(O)cc1)NC(=O)[C@H](CCCCN)NC(=O)[C@H](CO)NC(=O)[C@H](Cc1ccc(O)cc1)NC(=O)[C@H](CC(=O)O)NC(=O)[C@H](CO)NC(=O)[C@@H](NC(=O)[C@H](Cc1ccccc1)NC(=O)[C@@H](NC(=O)CNC(=O)[C@H](CCC(N)=O)NC(=O)[C@@H](CO)NC(=O)[C@@H](N)Cc1c[nH]cn1)[C@@H](C)O)[C@@H](C)O)C(C)C)[C@@H](C)O)C(=O)N[C@@H](C)C(N)=O [peptide 1] (H-H[dS]QGTFTSDYSKYLDS[dC]RAQDFVCWLMNTKRNRNNIA-NH2)
GLP-1R activation, result in words [1]: reduced potency | GCGR activation, result in words [2]: more potently than peptide 2

Compound: CC[C@H](C)[C@H](NC(=O)[C@H](CC(N)=O)NC(=O)[C@H](CC(N)=O)NC(=O)[C@H](CCCNC(=N)N)NC(=O)[C@H](CC(N)=O)NC(=O)[C@H](CCCNC(=N)N)NC(=O)[C@H](CCCCN)NC(=O)[C@@H](NC(=O)[C@H](CC(N)=O)NC(=O)[C@H](CCSC)NC(=O)[C@H](CC(C)C)NC(=O)[C@H](Cc1c[nH]c2ccccc12)NC(=O)[C@@H]1CSCC=Cc2ccc(cc2)C=CCSC[C@H](NC(=O)[C@H](CCC(=O)O)NC(=O)[C@H](CC(=O)O)NC(=O)[C@H](CC(C)C)NC(=O)[C@H](Cc2ccc(O)cc2)NC(=O)[C@H](CCCCN)NC(=O)[C@H](CO)NC(=O)[C@H](Cc2ccc(O)cc2)NC(=O)[C@H](CC(=O)O)NC(=O)[C@H](CO)NC(=O)[C@@H](NC(=O)[C@H](Cc2ccccc2)NC(=O)[C@@H](NC(=O)CNC(=O)[C@H](CCC(N)=O)NC(=O)[C@@H](CO)NC(=O)[C@@H](N)Cc2c[nH]cn2)[C@@H](C)O)[C@@H](C)O)C(=O)N[C@@H](C)C(=O)N[C@@H](C)C(=O)N[C@@H](CCCCN)C(=O)N[C@@H](CCC(=O)O)C(=O)N[C@@H](Cc2ccccc2)C(=O)N[C@@H]([C@@H](C)CC)C(=O)N1)[C@@H](C)O)C(=O)N[C@@H](C)C(N)=O [compound 12] (H-H[dS]QGTFTSDYSKYLDECAAKEFICWLMNTKRNRNNIA-NH2; linker 17-24 via X3)
EC50 ([1]; Table 2, mean and standard deviation, assay performed three times, read-out: Agonist activity (nM) GLP-1R): 0.45 ± 0.03 nM | EC50 ([2]; Table 2, mean and standard deviation, assay performed three times, read-out: Agonist activity (nM) GCGR): 1 ± 0.12 nM

Compound: exendin-4 [Ex-4, reference compound]
decrease of the area under curve (AUC) of blood glucose [3]: 30%

Continued, values first:

GLP-1R activation, result in words [1]: modest enhancement | GCGR activation, result in words [2]: modest enhancement
Compound: CC[C@H](C)[C@H](NC(=O)[C@H](CC(N)=O)NC(=O)[C@H](CC(N)=O)NC(=O)[C@H](CCCNC(=N)N)NC(=O)[C@H](CC(N)=O)NC(=O)[C@H](CCCNC(=N)N)NC(=O)[C@H](CCCCN)NC(=O)[C@@H](NC(=O)[C@H](CC(N)=O)NC(=O)[C@H](CCSC)NC(=O)[C@H](CC(C)C)NC(=O)[C@H](Cc1c[nH]c2ccccc12)NC(=O)[C@H](CS)NC(=O)[C@@H](NC(=O)[C@H](Cc1ccccc1)NC(=O)[C@H](CC(=O)O)NC(=O)[C@H](CCC(N)=O)NC(=O)[C@H](C)NC(=O)[C@H](CCCNC(=N)N)NC(=O)[C@H](CS)NC(=O)[C@H](CCC(=O)O)NC(=O)[C@H](CC(=O)O)NC(=O)[C@H](CC(C)C)NC(=O)[C@H](Cc1ccc(O)cc1)NC(=O)[C@H](CCCCN)NC(=O)[C@H](CO)NC(=O)[C@H](Cc1ccc(O)cc1)NC(=O)[C@H](CC(=O)O)NC(=O)[C@H](CO)NC(=O)[C@@H](NC(=O)[C@H](Cc1ccccc1)NC(=O)[C@@H](NC(=O)CNC(=O)[C@H](CCC(N)=O)NC(=O)[C@@H](CO)NC(=O)[C@@H](N)Cc1c[nH]cn1)[C@@H](C)O)[C@@H](C)O)C(C)C)[C@@H](C)O)C(=O)N[C@@H](C)C(N)=O [peptide 5] (H-H[dS]QGTFTSDYSKYLDECRAQDFVCWLMNTKRNRNNIA-NH2)

GCGR activation, result in words [2]: less potent
Compound: CC[C@H](C)[C@H](NC(=O)[C@H](CC(N)=O)NC(=O)[C@H](CC(N)=O)NC(=O)[C@H](CCCNC(=N)N)NC(=O)[C@H](CC(N)=O)NC(=O)[C@H](CCCNC(=N)N)NC(=O)[C@H](CCCCN)NC(=O)[C@@H](NC(=O)[C@H](CC(N)=O)NC(=O)[C@H](CCSC)NC(=O)[C@H](CC(C)C)NC(=O)[C@H](Cc1c[nH]c2ccccc12)NC(=O)[C@H](CS)NC(=O)[C@@H](NC(=O)[C@H](Cc1ccccc1)NC(=O)[C@H](CC(C)C)NC(=O)[C@H](CCCNC(=N)N)NC(=O)[C@@H](NC(=O)[C@H](C)NC(=O)[C@H](CS)NC(=O)[C@H](CCC(=O)O)NC(=O)[C@H](CC(=O)O)NC(=O)[C@H](CC(C)C)NC(=O)[C@H](Cc1ccc(O)cc1)NC(=O)[C@H](CCCCN)NC(=O)[C@H](CO)NC(=O)[C@H](Cc1ccc(O)cc1)NC(=O)[C@H](CC(=O)O)NC(=O)[C@H](CO)NC(=O)[C@@H](NC(=O)[C@H](Cc1ccccc1)NC(=O)[C@@H](NC(=O)CNC(=O)[C@H](CCC(N)=O)NC(=O)[C@@H](CO)NC(=O)[C@@H](N)Cc1c[nH]cn1)[C@@H](C)O)[C@@H](C)O)C(C)C)[C@@H](C)CC)[C@@H](C)O)C(=O)N[C@@H](C)C(N)=O [peptide 8] (H-H[dS]QGTFTSDYSKYLDECAVRLFICWLMNTKRNRNNIA-NH2)

increase in GLP-1R activity [1, 5]: roughly 2 fold | increase in GCGR activity [2, 5]: roughly 2 fold
Compound: CC[C@H](C)[C@H](NC(=O)[C@H](CC(N)=O)NC(=O)[C@H](CC(N)=O)NC(=O)[C@H](CCCNC(=N)N)NC(=O)[C@H](CC(N)=O)NC(=O)[C@H](CCCNC(=N)N)NC(=O)[C@H](CCCCN)NC(=O)[C@@H](NC(=O)[C@H](CC(N)=O)NC(=O)[C@H](CCSC)NC(=O)[C@H](CC(C)C)NC(=O)[C@H](Cc1c[nH]c2ccccc12)NC(=O)[C@H](CS)NC(=O)[C@@H](NC(=O)[C@H](Cc1ccccc1)NC(=O)[C@H](CC(=O)O)NC(=O)[C@H](CCC(N)=O)NC(=O)[C@H](C)NC(=O)[C@H](CCCNC(=N)N)NC(=O)[C@H](CS)NC(=O)[C@H](CO)NC(=O)[C@H](CC(=O)O)NC(=O)[C@H](CC(C)C)NC(=O)[C@H](Cc1ccc(O)cc1)NC(=O)[C@H](CCCCN)NC(=O)[C@H](CO)NC(=O)[C@H](Cc1ccc(O)cc1)NC(=O)[C@H](CC(=O)O)NC(=O)[C@H](CO)NC(=O)[C@@H](NC(=O)[C@H](Cc1ccccc1)NC(=O)[C@@H](NC(=O)CNC(=O)[C@H](CCC(N)=O)NC(=O)[C@@H](CO)NC(=O)[C@@H](N)Cc1c[nH]cn1)[C@@H](C)O)[C@@H](C)O)C(C)C)[C@@H](C)O)C(=O)N[C@@H](C)C(N)=O [peptide 4] (H-H[dS]QGTFTSDYSKYLDSCRAQDFVCWLMNTKRNRNNIA-NH2)
